Test system: MPNST complex spheroid with HUVEC/MSC, growth, % test/control
Assay: Anticancer human tumor MPNST cell line growth inhibition [Asc];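 further: compounds left on spheroids for seven days before reading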
Conditions: for IC50: curve of first compound; for viability, T/C: stronger effect = lower value
Procedure: Multicellular complex tumor spheroid response to apoptosis pathway targeting inhibitors Alrizomadlin, Pelcitoclax, and Dasminapant in combination with a variety of drugs and investigational agents in selected tumor cell lines
The MDM2 inhibitor alrizomadlin, the Bcl-2/Bcl-xL inhibitor pelcitoclax, and the IAPs inhibitor dasminapant were evaluated both individually and in combination with standard of care and investigational anticancer small molecules within a complex spheroid model of solid tumors. . Complex spheroids include a stromal component modeled by human endothelial cells (HUVEC) and fibroblasts modeled by human mesenchymal stem cells (MSCs). The concentration ranges selected for each drug and investigational agent were based upon clinically achievable concentrations if the clinical Cmax of the agent was known.
Compounds. The drugs and investigational agents: alrizomadlin (APG-115; NSC831270), pelcitoclax (APG-1252; NSC835773), dasminapant (APG-1387;NSC834197), TAK-243 (NSC785004), copanlisib (NSC809693), olaparib (NSC753686), talazoparib (NSC767125), cobimetinib (NSC 768068), eltanexor (KPT-8602, NSC 794443), abemaciclib (NSC 768073), sotorasib (NSC818433), adagrasib (NSC 831453), MRTX-1133 (NSC 836407), Iadademestat (ORY1001, NSC 806812), and RMC-4630 (NSC839698), were obtained from the NCI Developmental Therapeutics Program Chemical Repository. The FDA-approved anticancer drug set is available from the Developmental Therapeutics Program at https://dtp.cancer.gov/organization/dscb/obtaining/available plates.htm. […] The stock solutions were prepared in dimethyl sulfoxide (DMSO, Sigma-Aldrich, St. Louis, MO, cat. D2650) at 800-fold the tested concentration and stored at -70 degrees C prior to their use. All drugs and investigational agents were tested over a range starting from a high concentration at or near the clinical Cmax and decreasing in half-log increments. If the clinical Cmax for an agent had not been determined, the highest concentration tested was 10 microM.
The patient-derived cancer (PDC) cell lines include five colon adenocarcinomas: 186277-243-T-J2-PDC, 616215-338-R-J1-PDC, 439559-082-T-J2-PDC, 463943-066-T-J2-PDC, and 519858-162-T-J1-PDC; three pancreatic carcinomas: 323965-272-R-J2-PDC, 521955-158-R6-J3-PDC, and 521955-158-R2-J5-PDC; two uterine sarcomas: 327498-152-R-J2-PDC and 993429-296-R-J1-PDC; two rhabdomyosarcomas: 755483-174-R-J1-PDC and 772245-204-R-J1-PDC; two soft tissue sarcomas: 126254-015-R-J1-PDC and 494315-158-R-J1-PDC; two malignant fibrous histiocytomas: 317291-083-R-J1-PDC and 596521-263-R-J1-PDC; two breast carcinomas: 171881-019-R-J1-PDC and 885512-296-R-J2-PDC; and one ovarian carcinoma: 6556581-035-R-J-PDC were obtained from the NCI PDMR, (https://pdmr.cancer.gov). The established cell lines HSSY-2 synovial sarcoma (RRID:CVCL 8719), SYO-1 synovial sarcoma (RRID:CVCL_7146), MPNST malignant peripheral neural sheath tumor were obtained from the Sloan Kettering Institute. The following established cell lines were purchased from the American Type Culture Collection (ATCC, Manassas, VA), Sor the received from the NCI repository:, PANC-1 pancreatic carcinoma (CRL-1469, RRID:CVCL_0480), OVCAR-5 ovarian carcinoma (RRID:CVCL_1628), OVCAR-8 ovarian carcinoma (RRID:CVCL_1629), , MCF-7 breast carcinoma (CRL-12584, RRID:CVCL_0031), MDA-MB-231 breast carcinoma (CRL-12532, RRID:CVCL_0062), NCI-H1876 small cell lung carcinoma (CRL-5902, RRID:CVCL_1503), NCI-H510A small cell lung carcinoma (HTB-184, RRID:CVCL_1565), NCI-H1417 (CRL-5869, RRID:CVCL_1469), and NCI-H196 small cell lung carcinoma (CRL-5823, RRID:CVCL_1509). Dr. Peter Houghton (Greehey Children's Cancer Research Institute, University of Texas Health Science Center, San Antonio, TX) provided Rh-18 rhabdomyosarcoma (RRID:CVCL_1659). Pooled donor human umbilical vein endothelial cells (HUVEC, Lonza, cat. CC-2519) and human mesenchymal stem cells (hMSC, Lonza, cat. PT-2501) were purchased from Lonza (Walkersville, MD).
Cell Culture. […]

[1] = second compound 0.03 µM, first compound 0.00316 µM
[2] = second compound 0.03 µM, first compound 0.01 µM
[3] = second compound 0.03 µM, first compound 0.0316 µM
[4] = second compound 0.03 µM, first compound 0.1 µM
[5] = second compound 0.03 µM, first compound 0.316 µM
[6] = second compound 0.03 µM, first compound 1 µM
[7] = second compound 0.0949 µM, first compound 0.00316 µM
[8] = second compound 0.0949 µM, first compound 0.01 µM
[9] = second compound 0.0949 µM, first compound 0.0316 µM
[10] = second compound 0.0949 µM, first compound 0.1 µM
[11] = second compound 0.0949 µM, first compound 0.316 µM
[12] = second compound 0.0949 µM, first compound 1 µM
[13] = second compound 0.3 µM, first compound 0.00316 µM
[14] = second compound 0.3 µM, first compound 0.01 µM
[15] = second compound 0.3 µM, first compound 0.0316 µM
[16] = second compound 0.3 µM, first compound 0.1 µM
[17] = second compound 0.3 µM, first compound 0.316 µM
[18] = second compound 0.3 µM, first compound 1 µM
[19] = second compound 0.949 µM, first compound 0.00316 µM
[20] = second compound 0.949 µM, first compound 0.01 µM
[21] = second compound 0.949 µM, first compound 0.0316 µM
[22] = second compound 0.949 µM, first compound 0.1 µM
[23] = second compound 0.949 µM, first compound 0.316 µM
[24] = second compound 0.949 µM, first compound 1 µM
[25] = second compound 3 µM, first compound 0.00316 µM
[26] = second compound 3 µM, first compound 0.01 µM
[27] = second compound 3 µM, first compound 0.0316 µM
[28] = second compound 3 µM, first compound 0.1 µM
[29] = second compound 3 µM, first compound 0.316 µM
[30] = second compound 3 µM, first compound 1 µM

Row | Structure (SMILES) | IC50 (second compound 0.03 µM) | IC50 (second compound 0.0949 µM) | IC50 (second compound 0.3 µM) | IC50 (second compound 0.949 µM) | IC50 (second compound 3 µM) | viability, T/C [1] | viability, T/C [2] | viability, T/C [3] | viability, T/C [4] | viability, T/C [7] | viability, T/C [8] | viability, T/C [9] | viability, T/C [10] | viability, T/C [13] | viability, T/C [14] | viability, T/C [15] | viability, T/C [16] | viability, T/C [19] | viability, T/C [20] | viability, T/C [21] | other results
1 | CCN1CCN(Cc2ccc(Nc3ncc(F)c(-c4cc(F)c5nc(C)n(C(C)C)c5c4)n3)nc2)CC1 + CCN1C(C(=O)NC23CCC(C(=O)O)(CC2)CC3)C(c2cccc(Cl)c2F)C2(C(=O)Nc3cc(Cl)ccc32)C12CCCCC2 | > 1000 nM | > 1000 nM | > 1000 nM | > 1000 nM | > 1000 nM | 107% | 109% | 88.7% | 75.3% | 98.1% | 111% | 104% | 106% | 113% | 93.9% | 87.1% | 103% | 105% | 91.6% | 92.1% | viability, T/C [5]: 64.5%; viability, T/C [6]: 72.6%; viability, T/C [11]: 73.9%; viability, T/C [12]: 77%; viability, T/C [17]: 115%; viability, T/C [18]: 90.1%; viability, T/C [22]: 92.3%; viability, T/C [23]: 90.2%; viability, T/C [24]: 91.4%; viability, T/C [25]: 107%; viability, T/C [26]: 92%; viability, T/C [27]: 91.9%; viability, T/C [28]: 76.5%; viability, T/C [29]: 89.3%; viability, T/C [30]: 85.7%
2 | Cn1ncnc1[C@H]1c2n[nH]c(=O)c3cc(F)cc(c23)N[C@@H]1c1ccc(F)cc1 + CCN1C(C(=O)NC23CCC(C(=O)O)(CC2)CC3)C(c2cccc(Cl)c2F)C2(C(=O)Nc3cc(Cl)ccc32)C12CCCCC2 | 47.2 nM | > 100 nM | > 100 nM | > 100 nM | > 100 nM | 80.2% | 65.9% | 54.4% | 43.4% | 97.7% | 95.5% | 74.9% | 52.1% | 88.4% | 91.7% | 91.1% | 57.7% | 79.8% | 90.6% | 81.2% | viability, T/C (second compound 0.03 µM, first compound 0.000316 µM): 84.6%; viability, T/C (second compound 0.03 µM, first compound 0.001 µM): 82%; viability, T/C (second compound 0.0949 µM, first compound 0.000316 µM): 106%; viability, T/C (second compound 0.0949 µM, first compound 0.001 µM): 91.9%; viability, T/C (second compound 0.3 µM, first compound 0.000316 µM): 106%; viability, T/C (second compound 0.3 µM, first compound 0.001 µM): 92.9%; viability, T/C (second compound 0.949 µM, first compound 0.000316 µM): 80.2%; viability, T/C (second compound 0.949 µM, first compound 0.001 µM): 109%; viability, T/C [22]: 70.7%; viability, T/C (second compound 3 µM, first compound 0.000316 µM): 97.1%; viability, T/C (second compound 3 µM, first compound 0.001 µM): 94.3%; viability, T/C [25]: 89.8%; viability, T/C [26]: 86.6%; viability, T/C [27]: 73.6%; viability, T/C [28]: 72.7%
3 | O=C(c1ccc(F)c(F)c1Nc1ccc(I)cc1F)N1CC(O)([C@@H]2CCCCN2)C1 + CCN1C(C(=O)NC23CCC(C(=O)O)(CC2)CC3)C(c2cccc(Cl)c2F)C2(C(=O)Nc3cc(Cl)ccc32)C12CCCCC2 | 467 nM | 323 nM | 281 nM | 247 nM | 139 nM | 87.4% | 65% | 72.2% | 95.9% | 95.4% | 78% | 87.6% | 84.9% | 90.9% | 76% | 90.9% | 91.8% | 88.9% | 93.6% | 82.2% | viability, T/C [5]: 65.9%; viability, T/C [6]: 18.9%; viability, T/C [11]: 50.6%; viability, T/C [12]: 18.7%; viability, T/C [17]: 45.7%; viability, T/C [18]: 17.7%; viability, T/C [22]: 81.5%; viability, T/C [23]: 41.4%; viability, T/C [24]: 17.3%; viability, T/C [25]: 77.4%; viability, T/C [26]: 82.9%; viability, T/C [27]: 68.3%; viability, T/C [28]: 58.6%; viability, T/C [29]: 32.1%; viability, T/C [30]: 10.7%

— PubChem BioAssay AID1963442 (Molecular Pharmacology Branch, DTP, NCI, 2024)
